From ChEMBL document CHEMBL1212718, “Persistent signaling induced by FTY720-phosphate is mediated by internalized S1P1 receptors” (Nat Chem Biol, 2009)
Active and inactive are the calls of the source.

Key:
[1] = biological target: Sphingosine 1-phosphate receptor 1 (Homo sapiens) (UniProt P21453); conditions: CHO, 1 uM
Description: Agonist activity at human S1P1 receptor expressed in CHO cells assessed as inhibition of forskolin-stimulated cAMP formation at 1 uM after 20 mins

[2] = biological target: Sphingosine 1-phosphate receptor 1 (Homo sapiens) (UniProt P21453); conditions: CHO, 1 uM; remark: listed apart in the source
Description: Agonist activity at human S1P1 receptor expressed in CHO cells assessed as inhibition of forskolin-stimulated cAMP formation at 1 uM after 60 mins

[3] = biological target: Sphingosine 1-phosphate receptor 1 (Homo sapiens) (UniProt P21453); assay: Induction of human S1P1 receptor internalization expressed in CHO cells pretreated at 1 uM for 1 hr measured after 5 hrs washout period; type: cell-based
[4] = biological target: Sphingosine 1-phosphate receptor 1 (Homo sapiens) (UniProt P21453); assay: Agonist activity at human S1P1 receptor expressed in CHO cells assessed as inhibition of forskolin-stimulated cAMP formation pretreated at 1 uM for 1 hr measured after 5 hrs washout peroid; type: functional, cell-based
[5] = biological target: Sphingosine 1-phosphate receptor 1 (Homo sapiens) (UniProt P21453); assay: Induction of human S1P1 receptor internalization expressed in CHO cells at 1 uM after 60 mins; type: cell-based

Sequence of Sphingosine 1-phosphate receptor 1 (Homo sapiens) (P21453 whole entry): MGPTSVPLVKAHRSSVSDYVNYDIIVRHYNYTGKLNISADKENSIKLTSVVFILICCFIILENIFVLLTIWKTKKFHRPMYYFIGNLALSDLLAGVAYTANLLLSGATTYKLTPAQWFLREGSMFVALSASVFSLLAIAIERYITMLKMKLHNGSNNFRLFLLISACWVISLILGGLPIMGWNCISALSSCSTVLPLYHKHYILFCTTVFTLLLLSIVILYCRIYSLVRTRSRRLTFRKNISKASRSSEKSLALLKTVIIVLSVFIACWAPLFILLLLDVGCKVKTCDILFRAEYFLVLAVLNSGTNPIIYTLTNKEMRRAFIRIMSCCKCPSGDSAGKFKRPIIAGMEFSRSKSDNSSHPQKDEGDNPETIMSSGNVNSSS

CCCCCCCCCCCCC/C=C/[C@@H](O)[C@@H](N)COP(=O)(O)O
active: inhibition [1] | inhibition [2] | Activity [3] | inhibition [4] | Activity [5]
